Like-named read-outs stand apart in the source and are kept apart here.
Experiments:
[1] = system: osteoarthritis; details: cited from earlier work; for clinical difference between the high potency narcotics and tramadol: human, in vivo
[2] = system: osteoarthritis syndrome in both knees; assay: Composition applied to the skin in the region of one knee, other knee left untreated; assay type: in vivo, human; details: patient, topical application to skin in the region of one knee
Source text: A patient is diagnosed with osteoarthritis syndrome in both knees.
A patient is diagnosed with osteoarthritis syndrome in both knees. A composition comprising the ACE inhibitor enalapril is directly applied to the skin in the region of one knee while the other knee is left untreated.
A patient is diagnosed with osteoarthritis syndrome in both knees. A composition comprising the angiotensin receptor blocker losartan is directly applied to the skin in the region of one knee while the other knee is left untreated.

[3] = system: osteoarthritis syndrome in both knees; assay: Composition given by intra-articular injection in one knee, other knee left untreated; assay type: in vivo, human; details: patient
Method: A patient is diagnosed with osteoarthritis syndrome in both knees. […] A patient is diagnosed with osteoarthritis syndrome in both knees. A composition comprising the ACE inhibitor enalapril is administered by intra-articular injection in one knee while the other knee is left untreated. […] A patient is diagnosed with osteoarthritis syndrome in both knees. A composition comprising the angiotensin receptor blocker losartan is administered by intra-articular injection in one knee while the other knee is left untreated.

[4] = system: osteoarthritis; details: 6 trials, 1501 participants, cited from earlier work

## CC(=O)Nc1ccc(O)cc1 [Tylenol]
[1]; meta-analysis of 74 randomized clinical trials, 58556 patients
  clinical effect: did not have a clinically relevant effect

## CCOC(=O)[C@H](CCc1ccccc1)N[C@@H](C)C(=O)N1CCC[C@H]1C(=O)O [enalapril]
[2]
  symptoms of osteoarthritis syndrome, treated knee versus untreated knee: reduced symptoms of osteoarthritis syndrome
[3]
  symptoms of osteoarthritis syndrome, treated knee versus untreated knee: reduced symptoms of osteoarthritis syndrome

## N[C@H]1C(O)O[C@H](CO)[C@@H](O)[C@@H]1O.O=S(=O)(O)O (stereo partly shown) [glucosamine sulfate]
[1]; industry-sponsored study of 604 patients
  pain and function: statistical significant reduction in pain and increase in function
[1]; meta-analysis of 25 randomized placebo controlled clinical trials, 3458 patients
  effect versus placebo: failed to find any significant effects
[4]; after 3 years, benefit clinically irrelevant
  preventive effect on osteoarthritis: small statistical effect
[4]; after one year
  preventive effect on osteoarthritis: no preventive effect

## CCCCc1nc(Cl)c(CO)n1Cc1ccc(-c2ccccc2-c2nn[nH]n2)cc1 [losartan]
[2]
  symptoms of osteoarthritis syndrome, treated knee versus untreated knee: reduced symptoms of osteoarthritis syndrome
[3]
  symptoms of osteoarthritis syndrome, treated knee versus untreated knee: reduced symptoms of osteoarthritis syndrome

## CN1CC[C@]23c4c5ccc(O)c4O[C@H]2[C@@H](O)C=C[C@H]3[C@H]1C5 [morphine]
[1]
  clinical difference between the high potency narcotics and tramadol: no clinically observable difference

## COc1ccc2c3c1O[C@H]1C(=O)CC[C@@]4(O)[C@@H](C2)N(C)CC[C@]314 [oxycodone]
[1]
  clinical difference between the high potency narcotics and tramadol: no clinically observable difference

## COc1cccc(C2(O)CCCCC2CN(C)C)c1 (stereo not shown) [tramadol]
[1]
  clinical difference between the high potency narcotics and tramadol: no clinically observable difference

## chondroitin sulfate
[1]; meta-analysis of 20 randomized clinical studies, 3846 patients, called negligible
  effect on pain and function: 0.003%
